# Patent US20190374601A1, “METHODS FOR TREATING FUNGAL INFECTIONS” (priority 2017, published 2019)
# Marks after values point to notes of the source that are not given here.
# Legend:
# Assay type in all cases: in vivo
# [1] = test system: T. mentagrophytes ATCC 24953; assay: Hair root invasion test (mycological evaluation), T. mentagrophytes dermatophytosis guinea pig model, Example 1; details: evaluated study day 10, relative to vehicle control
# Description: (§1) A request was made to the Animal Resource Center (ARC) at Case Western Reserve University to order the required number of male albino Harlan-Sprague-Dawley Guinea-Pigs (San Diego, Calif.) with a body weight of 450-500 g. Animals were allowed to acclimate for a minimum of 5 days prior to use. Environmental controls for the animal room were set to maintain a temperature of 16 to 22° C., a relative humidity of 30-70%, and a 12:12 light-dark cycle.
# (§2) T. mentagrophytes ATCC 24953 was used as the infecting fungus. This strain was selected because it can cause skin infection and results in inflammatory reaction.
# (§3) T. mentagrophytes (from frozen stock) was sub-cultured on Potato Dextrose Agar plates and incubated at 30° C. for 5-7 days. The colonies were scraped from the plates using sterile normal saline (NaCl 0.85%) solution. After washing for three times with sterile saline the conidia were re-suspended in the same solution. Ten-fold dilutions of conidia suspension were prepared and counted using a hemacytometer. Working suspension of conidia was prepared at a final concentration of 1×10^7 Colony Forming Units (CFUs)/100 μL in normal saline.
# (§4) Each animal was anesthetized with a cocktail of xylazine and ketamine: 0.2 mL intramuscularly. Using an electric shaver, hair was clipped on left side of the guinea pig back. A closer shave was done with a disposable razor. Using a stencil, a square of 2.5 cm×2.5 cm was marked. The marked skin area was abraded with sterile fine grit sandpaper. A cell suspension containing 1×10^7 conidia in 100 μL was applied and rubbed thoroughly on the abraded skin.
# (§5) Beginning two hours post inoculation, animals were treated subcutaneously (SQ) for CD101 and orally (PO) terbinafine once daily for a period of nine days, or once a week on days 1 and 8.
# (§6) Study Day 1: Infected the animals with T. mentagrophytes and begin treatments.
# (§7) Study Day 9 (treatment day 9): End treatments.
# (§8) Study Day 10: Clinical evaluation of the four quadrants in the marked area was done. Hair samples were obtained from each quadrant (10 per quadrant). Hairs were planted in Potato Dextrose Agar, and incubated for 48 h for mycological evaluation. Procedures for clinical and mycological evaluations are described below.
# (§9) CD101 was administered SQ in 0.3 mL, while the terbinafine was given orally in 0.3 mL. Vehicle treated group was also included.
# (§10) Hair samples were removed with a sterile forceps from four quadrants. Ten hair samples from each quadrant were inoculated onto the corresponding quadrant on the Potato Dextrose agar plate and incubated at 30° C. for 2 days. The fungal growth at the hair root was examined under a stereomicroscope. The effectiveness of a compound in reducing the number of mycologically positive hair sample per treated group is expressed as percentage relative to the vehicle control group of animals using the following formula:
# where, T=Positive hair in the test group, K=Positive hair in the Untreated control.
# [2] = test system: T. mentagrophytes; assay: Hair root invasion test (mycological evaluation), T. mentagrophytes dermatophytosis guinea pig model, different doses once weekly, Example 2; details: 10 mg/kg PO days 1 and 8, evaluated study day 12, relative to vehicle control
# Description: (§11) Procedures for animal care and use, preparation of standard inoculum, and infection of the animals were carried out following the same steps as described in Example 1.
# (§12) Infected guinea pigs were randomized into the following (1)-(5) groups (10 per group) (see Table 4): (1) a vehicle control (water+mannitol); (2) terbinafine 10 mg/kg PO days 1 and 8, as a positive control; (3) CD101 10 mg/kg SQ days 1 and 8; (4) CD101 20 mg/kg SQ days 1 and 8; and (5) CD101 40 mg/kg SQ days 1 and 8.
# (§13) Animals were treated with CD101 SQ or PO (for terbinafine) once a week on days 1 and 8.
# (§14) Study Day 1: Infect the animals with T. mentagrophytes and begin treatments.
# (§15) Study Day 8: Last treatment.
# as §8, with “Day 12:” for “Day 10:”, “area is” for “area was”, “each quadrant. Hairs” for “each quadrant”, “per quadrant)” for “per quadrant). Hairs”
# (§16) The compounds was administered SQ or PO (0.3 mL/kg […]).
# as §10, with “with” for “with a”, “was” for “is”, “untreated” for “vehicle”
# where T=Positive hair in the test group, K=Positive hair in the Untreated control.
# [3] = test system: T. mentagrophytes; assay: Clinical evaluation of infected skin, T. mentagrophytes dermatophytosis guinea pig model, different doses once weekly, Example 2; details: 10 mg/kg PO days 1 and 8, evaluated study day 12, relative to vehicle control
# Description: as §11, §12, §13, §14, §15
# as §8, with “Day 12:” for “Day 10:”, “area is” for “area was”, “each quadrant. Hairs” for “each quadrant”, “per quadrant)” for “per quadrant). Hairs”
# as §16
# (§17) Clinical assessment of local changes of the infected skin area was scored as follows:
# (§18) 1=Few slightly erythematous places on the skin
# (§19) 2=Well-defined redness, swelling with bristling hairs.
# (§20) 3=Large areas or marked redness incrustation, scaling, bald patches, ulcerated in places.
# (§21) 4=Partial damage to the integument and loss of hair
# (§22) 5=Extensive damage to the integument and complete loss of hair at the site of infection.
# Any other local skin reactions were noted. The assessment of clinical evaluation in the change of scores per treatment group was expressed as percentage relative to the untreated control group of animals using the following formula:
# where T=Scores in the test group. K=Scores in the untreated control
# [4] = test system: T. mentagrophytes ATCC 24953; assay: Clinical evaluation of infected skin, T. mentagrophytes dermatophytosis guinea pig model, Example 1; details: evaluated study day 10, relative to vehicle control
# Description: as §1, §2, §3, §4, §5, §6, §7, §8, §9, §17, §18, §19, §20, §21, §22
# Any other local skin reactions were noted. The assessment of clinical evaluation in the change of scores per treatment group is expressed as percentage relative to the vehicle control group of animals using the following formula:
# where, T=Scores in the test group. K=Scores in the untreated control
# [5] = 10 mg/kg PO daily for nine days
# [6] = 10 mg/kg PO daily for nine days, listed as terbinafine
# [7] = 10 mg/kg PO once a week (days 1 and 8)
# [8] = 10 mg/kg PO once a week (days 1 and 8), listed as terbinafine
compound,measurement,setting,value
"CN(C/C=C/C#CC(C)(C)C)Cc1cccc2ccccc12 [Terbinafine, terbinafine, reference compound]",Percent Efficacy Mycological,[1]; [5],91.6* %
same,Percent Efficacy Mycological,[1]; [6],91.6%
same,Percent Efficacy Mycological,[1]; [7],83.1* %
same,Percent Efficacy Mycological,[1]; [8],83.1%
same,Percent Efficacy Mycological,[2],54.2* %
same,Percent Efficacy Mycological,[2]; listed as terbinafine,54.2%
same,Percent Efficacy Clinical,[3],76.8* %
same,Percent Efficacy Clinical,[3]; listed as terbinafine,76.8%
same,Percent Efficacy Clinical,[4]; [5],78.7* %
same,Percent Efficacy Clinical,[4]; [6],78.7%
same,Percent Efficacy Clinical,[4]; [7],60.6* %
same,Percent Efficacy Clinical,[4]; [8],60.6%
